{"source": "ChEMBL document CHEMBL5247575", "about": "(J Med Chem, 2018)", "key": {"[1]": {"tested_on": "Acinetobacter baumannii", "test": "Synergistic antibacterial activity against Acinetobacter baumannii NCTC 13301 producing OXA-23/51 infected in sc dosed Swiss albino mouse assessed as colistin MIC at 8 ug/ml administered 1 hr post infection and measured upto 7 days", "assay_type": "functional", "settings": "NCTC 13301, 168 h, dose 8 µg/ml, time <= 7 day"}, "[2]": {"tested_on": "Acinetobacter baumannii", "test": "Antibacterial activity against Acinetobacter baumannii SL46 producing OXA-23/51 infected in sc dosed Swiss albino mouse administered 1 hr post infection and measured upto 7 days", "settings": "SL46, 168 h"}, "[3]": {"test": "Inhibition of bacteria OXA-48 assessed as apparent inhibition constant using nitrocefin as substrate"}}}
{"compound": "N#C[C@@H]1CC[C@@H]2CN1C(=O)N2OS(=O)(=O)[O-].[Na+]", "values": [{"measurement": "MIC", "setting": "[1]", "value": 1, "unit": "µg/mL"}, {"measurement": "ED90", "setting": "[2]", "value": 66.2, "unit": "mg/kg"}, {"measurement": "ED50", "setting": "[2]; read-out: PD50", "value": 24.9, "unit": "mg/kg"}, {"measurement": "Ki", "setting": "[3]", "value": 290, "unit": "nM"}]}
